In patent publication US20080318876A1, “Use of Ginsenosides in the Treatment of Aids” (priority 2004, published 2008):
Like-named read-outs stand apart in the source and are kept apart here.

How the values were obtained:
HIV-1 in Hela-CD4 cells = assay: Combination medication JHR and AZT (MAGI test); type: cell-based
Method: Method: For the experiment, the MAGI test method was adopted (the same as above).
(A) Single-agent medication: five doses of AZT were used in amount of from 1 μM to 3.9 nM, and were designated AZT1-5, five doses of JHR were designated in amount of 400 ug/ml to 1.56 ug/ml, and IC50 were obtained respectively.
Half dosage of AZT was combined with half dosage of JHR-1 as one sample. AZT1 was combined respectively with any of JHR1-JHR5; Each of AZT2, AZT3, AZT4, AZT5 was respectively combined with any of […]. So a total of 25 concentration combinations could be used. Each concentration was set in duplicate wells (2 wells). Additional group was taken as cell and virus controls.
(C) Comparing each drug combination with the virus group to have the inhibition rate. The inhibition rate of each drug combination was compared with the sole AZT IC50 to obtain the difference of functions each other.

[1] = system: HIV-1 (single-life-cycle reporter HIV) in Hela-CD4-LTR-gal cells; assay: Inhibition of HIV-1 replication in HeLa-CD4 cells (MAGI test); type: cell-based; details: for inhibition at 200 µg/mL: Human immunodeficiency virus 1, MAGI, read-out: Inhibition Rate (0.2 mg/ml)
Method: Three types of cells (such as MT4, Hela-CD4, PBMC) were infected respectively with HIV-1 virus for observation of the inhibiting effects of ginseng composition (JHR) prepared in Example 1 upon the HIV-1 replication.
Virus: Single-life-cycle reporter HIV was acquired by transfection with HIV plasmids.
Method: Hela-CD4-LTR-gal cell was inoculated into a 24-well plate at 0.4×10^5/well and cultured for 24 hours and let the cells absorb and adhere to the wall. On the second day, the supernatants were sucked away from the wells and 100 μl drug (drug control) or drug (drug solutions with different concentrations) and HIV-1 or culture medium (Mock) were added. After 2 hours, 200 μl of identical drug solutions or culture medium was added into each well for culturing at 37° C. in a CO2 incubator for 48 hours and detecting by the following method.
Fixation: The supernatants were sucked away from each well and adding the fixative solution (1 ml), and then by staining with K4[Fe(CN)6].3H2O, K3[Fe(CN)6] and X-gel.
Counting: For the blue cell counts (BCC) within each well, the following formula is used to calculate the IR and then IC50.
The same method as that in example 1 is applied, except that the drug added into the wells is Ginsenoside monomer, and the concentration thereof is listed in table 3.

[2] = system: HIV single life cycle model; assay: Viral life cycle stage targeted: dosing at different times post-infection (single life cycle model, MAGI or Luciferase); type: cell-based
gp120 protein = biological target: T1, gp120 protein (Human immunodeficiency virus type 1 group M subtype B, UniProt P03375); type: binding; details: BIACORE chip, genetically recombined gp120
T1 construct: The genetically recombined gp41, gp120 were placed on the chip of BIACORE analyzer

gp41 protein = gp41 protein (Human immunodeficiency virus type 1 group M subtype B, UniProt P03375); assay: BIACORE binding to gp41 protein; details: BIACORE chip, genetically recombined gp41; conjugation to gp41 stronger than to gp120
Excerpt: The genetically recombined gp41, gp120 were placed on the chip of BIACORE analyzer, respectively, after adding a certain concentration of Rb3 in sufficient amount, the instrument could detect whether or not there was a binding.

## Cc1cn([C@H]2C[C@H](N=[N+]=[N-])[C@@H](CO)O2)c(=O)[nH]c1=O [AZT]
HIV-1 in Hela-CD4 cells; AZT alone or AZT combined with JHR dose 1-5, MAGI test, read-out: ED50 (the source's name)
  EC50: 46 nM
HIV-1 in Hela-CD4 cells; AZT alone, read-out: IC50 of AZT alone
  IC50: 46 nM
HIV-1 in Hela-CD4 cells; combined with the first dose of JHR, read-out: IC50 of AZT after combining with the first dose of JHR
  IC50: 5.8 nM

## CC(C)=CCC[C@](C)(OC1OC(COC2OC(CO)C(O)C(O)C2O)C(O)C(O)C1O)[C@H]1CC[C@]2(C)[C@@H]1[C@H](O)C[C@@H]1[C@@]3(C)CC[C@H](OC4OC(CO)C(O)C(O)C4OC4OC(CO)C(O)C(O)C4O)C(C)(C)[C@@H]3CC[C@]12C (stereo partly shown) [Rb1]
[1]
  inhibition at 200 µg/mL: 41.9%

## CC(C)=CCC[C@](C)(OC1OC(COC2OCC(O)C(O)C2O)C(O)C(O)C1O)[C@H]1CC[C@]2(C)[C@@H]1[C@H](O)C[C@@H]1[C@@]3(C)CC[C@H](OC4OC(CO)C(O)C(O)C4OC4OC(CO)C(O)C(O)C4O)C(C)(C)[C@@H]3CC[C@]12C (stereo partly shown) [Rb2]
[1]
  inhibition at 200 µg/mL: 42.9%

## CC(C)=CCC[C@](C)(O[C@@H]1O[C@H](CO[C@@H]2OC[C@@H](O)[C@H](O)[C@H]2O)[C@@H](O)[C@H](O)[C@H]1O)[C@H]1CC[C@]2(C)[C@@H]1[C@H](O)C[C@@H]1[C@@]3(C)CC[C@H](O[C@@H]4O[C@H](CO)[C@@H](O)[C@H](O)[C@H]4O[C@@H]4O[C@H](CO)[C@@H](O)[C@H](O)[C@H]4O)C(C)(C)[C@@H]3CC[C@]12C [Rb3]
[2]; dosing 2 hours post-infection
  Inhibition rate (%): 83.98%
[2]; dosing 10 hours post-infection
  Inhibition rate (%): 0%
[2]; dosing 29 hours post-infection
  Inhibition rate (%): 0%
gp120 protein
  binding to gp120 protein: can bind
[1]; Hela-CD4 cell strain, 0.2 mg/ml
  Inhibition Rate (0.2 mg/ml): 70.68%
[1]; Hela-CD4 cell strain, 0.4 mg/ml
  Inhibition Rate (0.4 mg/ml): 97.9%
gp41 protein
  binding to gp41 protein: can bind

## CC(C)=CCC[C@](C)(OC1OC(COC2OC(CO)C(O)C2O)C(O)C(O)C1O)[C@H]1CC[C@]2(C)[C@@H]1[C@H](O)C[C@@H]1[C@@]3(C)CC[C@H](OC4OC(CO)C(O)C(O)C4OC4OC(CO)C(O)C(O)C4O)C(C)(C)[C@@H]3CC[C@]12C (stereo partly shown) [Rc]
[1]
  inhibition at 200 µg/mL: 60.7%
